# Columns and labels:
# skin lesions / wounds = assay: Topical treatment of skin lesions and wounds in patients (Examples 19-29); format: in vivo, human; conditions: topical application
# Description: Inoperable antibiotic multi-resistance. […] The jagged edges of the lesion are erythematous and infected. The periwound skin is erythematous and edematous, with erythema extending to the malleolar area. The lesion is lightly exuding, with foul-smelling, serous exudate. Contaminated/infected wound. When changing the dressing, the pain expressed is equal to 8 (VAS pain scale); there is still discomfort and sometimes pain even when the dressing is not changed. Complex wound due to comorbidities. • Treatment with Udonitrectag: Wound cleaning performed with sterile saline solution (0.9% sodium chloride) and Microdacyn, followed by Urgotul and finally 1% Udonitrectag gel-cream, covered with a light dressing; 2 dressing changes per week for a total of 5 dressings with 1% Udonitrectag gel-cream.
# male C57BL/6 mice = assay: In vivo model of androgenetic alopecia (DHT-injected mice); conditions: Udonitrectag 100 μM in PBS, topical twice a day for 2 weeks; vs vehicle
# Protocol: Udonitrectag was studied in an in vivo model of androgenetic alopecia.
# For this purpose, male C57BL/6 mice were shaved with an animal clipper at 8 weeks of age, when all follicles are in the telogen phase. After depilation, 4 mg of DHT (dissolved in 100 μL of ethanol) were injected subcutaneously into the back of each animal. The mice were then divided into two groups: vehicle-treated and treated with Udonitrectag 100 μM in PBS. Udonitrectag 100 μM solution, or vehicle (PBS only) were applied topically twice a day for 2 weeks and hair growth was recorded at the beginning and at the end of treatment.
# [1] = test system: human keratinocytes (HACAT cell line); assay: In vitro wound healing model, scratched keratinocyte monolayer; format: cell-based; conditions: 50 μM MT8, compared to control medium
# Protocol: To evaluate whether MT8 is able to induce faster healing of injured human keratinocytes (HACAT cell line) monolayers, an in vitro “wound healing” model was used. HACAT cells were seeded in 6-well culture dishes and grown to 90%-95% confluency. A standardized wound was created by scratching the HACAT cell monolayer with a sterile micropipette tip under an inverted microscope. Then, the cells were washed with PBS and treated with 50 μM MT8 or 4 nM NGF, and images of the wound healing process were recorded at different time points.
# [2] = test system: psoriasis lesions on the calves of both legs; assay: Treatment of psoriasis in a patient; format: in vivo, human; conditions: one patient
# Description: A patient diagnosed with psoriasis having lesions on the calves of both legs underwent the following treatment:
# • FAGRON: galenic preparation (0.05% clobetasol propionate, 10% urea in occluvan q.s. to 100%)
# [3] = test system: Human Umbilical Vein Endothelial Cells (HUVECs); assay: In vitro AGE-induced endothelial dysfunction, ATP content by CellTiter Glo; format: cell-based; conditions: 20 µM MT8; HUVECs on ECM-AGE-coated plates, 4 days
# Protocol: BSA-AGE and ECM-AGE were produced by Maillard reaction and Amadori rearrangement and used to evaluate oxidative stress and apoptosis process induced by AGEs in endothelial cell cultures.
# To evaluate whether MT8 is able to counteract AGE-induced endothelial cell dysfunction, Human Umbilical Vein Endothelial Cells (HUVECs) were seeded on ECM-AGE-coated plates and incubated with complete growth medium, in the presence or absence of 20 µM MT8, or 2 nM NGF+2 nM BDNF for 4 days. The cells were then lysed with 100 µL of CellTiter Glo, which allows for ATP release from the cells. The ATP content (directly proportional to cell viability) was measured by luciferase assay.
substance,measurement,setting,value
"(1S,4R,5R,7S)-3,4-dibenzyl-2-oxo-6,8-dioxa-3-azabicyclo[3.2.1]octane-7-carboxylic acid lysine salt [Udonitrectag]",healing of skin lesions incurable with other treatments (FIGS. 6-16),skin lesions / wounds,healing of severe skin lesions
same,hair regrowth,male C57BL/6 mice,induces hair regrowth much faster and more intensively than vehicle treatment
same,wound repair process (wound distances as a function of time),[1],induces a faster repair process
same,psoriasis status at skin examination two years after the end of the treatment,"[2]; left and right leg, both legs last treated with Udonitrectag 0.5% gel-cream",completely healed
same,improvement of psoriatic lesions during treatment,"[2]; topical, Udonitrectag as 0.5% gel-cream, regimen per leg over days 1-30",produced visible improvements in the lesions
same,endothelial cell viability (ATP content),[3],able to maintain endothelial cell viability

# Source: US20260041694A1, “Udonitrectag For Topical Use In The Treatment Of Dermatological Diseases” (MIMETECH S.R.L., priority 2022, published 2026)
